# Results published in patent US12702696B2, “Methods and composition for modulating immune response and immune homeostasis” (Massachusetts Institute of Technology, priority 2019, dated 2026).
# Ends that are not written are not given here.
# Assays:
# [1] = tested on: sympathetic (TH+) and sensory (tdTomato+) fibers of LNs; assay: 6-OHDA-mediated chemical sympathectomy, sensory and sympathetic fiber density in popliteal LNs (whole-mount imaging); assay type: in vivo, mouse; conditions: 6-OHDA 100 mg kg-1 intraperitoneally daily for 5 days vs saline; popliteal LNs of Nav1.8Cre/+; Rosa26LSL-tdTomato/+ mice
# From the text: To address the interdependence between these two types of innervation, Applicants assessed the sensitivity of each type of fiber to 6-hydroxydopamine (6-OHDA)-mediated chemical sympathectomy or diphtheria toxin A (DTA)-mediated genetic ablation of Nav1.8 lineage neurons. […] Thus, Applicants unexpectedly discovered that LNs receive not only sympathetic but also sensory innervation, two categorically different types of innervation that are anatomically independent of each other.
# Whole mount immunohistochemistry of LNs was performed using an iDISCO protocol with methanol pretreatment optimized for LNs (Renier et al., 2014). Briefly, adult animals (6-12 weeks) were perfused with 25 mL of PBS (Hyclone) and 25 mL of 4% paraformaldehyde (PFA, Sigma) sequentially at room temperature (RT). Peripheral lymph nodes (PLNs), including popliteal and inguinal lymph nodes (popLNs and iLNs), were postfixed with 4% PFA for 1 hr at 4° C. […]
# For sympathetic denervation, the stock solution of 6-hydroxydopamine (6-OHDA) (Sigma) was prepared in water at 42 mg/mL and stored at −20° C. […] Animals were analyzed the following day.
# For quantification of innervation density of LNs as in FIGS. 1C-1F, relevant channels were first masked with the LN isosurface as described above. […]
# [2] = mice; GAL2 selective agonist; cited from earlier work
molecule,measurement,setting,value
"NCCc1cc(O)c(O)cc1O [6-OHDA, 6-hydroxydopamine]",effect on sensory innervation (tdTomato+ fiber density) of LNs,[1],not compromised
same,effect on sympathetic innervation (TH+ fiber density) of LNs,[1],efficient sympathetic denervation of LNs
"Galanin 2-11 amide: GAL2 selective galanin receptor agonist, CAS #367518-31-8 (WTLNSAGYLL-NH2; UniProt P22466 34-43, looked up, fragment)",anticonvulsant activity,[2],anticonvulsant in mice
